Patent publication US10781224B2, “Bis(oxymethyl)phosphinic acid and biogenic metal salts thereof as regulators of plant growth and development” (priority 2016, dated 2020)

Tested on: corn (Krasnodar 385 MV variety)
Test: Corn seed treatment with BHMPA salts: germinating power
Assay type: in vivo
Procedure, shortened: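 Seeds (50 per Petri dish on two layers of filter paper) soaked 1 h in BHMPA or its Ca, Mg, Na, Co, Mn, Cu or Zn salts at 1·10^−6-1·10^−12%, with water controls. Germination energy read on day 4, germination on day 8 (wheat) or day 7 (rice, corn), as % means of four replicates. Germinating power taken as root and sprout length plus wet and dry mass per 100 seedlings.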

[1] = corn seeds, solution concentration 1 · 10^−6%, manganese salt of BHMPA
[2] = corn seeds, solution concentration 1 · 10^−7%, manganese salt of BHMPA
[3] = corn seeds, solution concentration 1 · 10^−8%, manganese salt of BHMPA
[4] = corn seeds, solution concentration 1 · 10^−9%, manganese salt of BHMPA
[5] = corn seeds, solution concentration 1 · 10^−10%, manganese salt of BHMPA
[6] = corn seeds, solution concentration 1 · 10^−11%, manganese salt of BHMPA
[7] = corn seeds, solution concentration 1 · 10^−12%, manganese salt of BHMPA
[8] = corn seeds, solution concentration 1 · 10^−6%, sodium salt of BHMPA
[9] = corn seeds, solution concentration 1 · 10^−7%, sodium salt of BHMPA
[10] = corn seeds, solution concentration 1 · 10^−8%, sodium salt of BHMPA
[11] = corn seeds, solution concentration 1 · 10^−9%, sodium salt of BHMPA
[12] = corn seeds, solution concentration 1 · 10^−10%, sodium salt of BHMPA
[13] = corn seeds, solution concentration 1 · 10^−11%, sodium salt of BHMPA
[14] = corn seeds, solution concentration 1 · 10^−12%, sodium salt of BHMPA

O.O.O=P([O-])(CO)CO.O=P([O-])(CO)CO.[Mn+2] [Mn-salt, Manganese BHMPA Salt]
optimum concentration for treating corn seeds before sowing (corn): 1·10^−9%
Length, root [1]: 4.6 cm
Length, root, + % to control [1]: −4%
Length, sprout [1]: 2.8 cm
Length, sprout, + % to control [1]: −18%
Mass, dry, root [1]: 1.47 g/100 plantlings
Mass, dry, root, + % to control [1]: 6%
Mass, dry, sprout [1]: 0.83 g/100 plantlings
Mass, dry, sprout, + % to control [1]: 5%
Mass, wet, root [1]: 9.87 g/100 plantlings
Mass, wet, root, + % to control [1]: 12%
Mass, wet, sprout [1]: 5.92 g/100 plantlings
Mass, wet, sprout, + % to control [1]: 0%
Length, root [2]: 5.0 cm
Length, root, + % to control [2]: 4%
Length, sprout [2]: 3.1 cm
Length, sprout, + % to control [2]: −9%
Mass, dry, root [2]: 1.55 g/100 plantlings
Mass, dry, root, + % to control [2]: 11.5%
Mass, dry, sprout [2]: 0.89 g/100 plantlings
Mass, dry, sprout, + % to control [2]: 13%
Mass, wet, root [2]: 10.61 g/100 plantlings
Mass, wet, root, + % to control [2]: 20%
Mass, wet, sprout [2]: 6.63 g/100 plantlings
Mass, wet, sprout, + % to control [2]: 12%
Length, root [3]: 5.4 cm
Length, root, + % to control [3]: 12.5%
Length, sprout [3]: 3.6 cm
Length, sprout, + % to control [3]: 6%
Mass, dry, root [3]: 1.69 g/100 plantlings
Mass, dry, root, + % to control [3]: 21.5%
Mass, dry, sprout [3]: 1.05 g/100 plantlings
Mass, dry, sprout, + % to control [3]: 33%
Mass, wet, root [3]: 11.92 g/100 plantlings
Mass, wet, root, + % to control [3]: 35%
Mass, wet, sprout [3]: 7.03 g/100 plantlings
Mass, wet, sprout, + % to control [3]: 19%
Length, root [4]: 5.8 cm
Length, root, + % to control [4]: 21%
Length, sprout [4]: 3.9 cm
Length, sprout, + % to control [4]: 15%
Mass, dry, root [4]: 1.82 g/100 plantlings
Mass, dry, root, + % to control [4]: 31%
Mass, dry, sprout [4]: 1.25 g/100 plantlings
Mass, wet, root [4]: 12.62 g/100 plantlings
Mass, wet, root, + % to control [4]: 43%
Mass, wet, sprout [4]: 7.69 g/100 plantlings
Mass, wet, sprout, + % to control [4]: 30%
Length, root [5]: 5.5 cm
Length, root, + % to control [5]: 14.5%
Length, sprout [5]: 3.7 cm
Length, sprout, + % to control [5]: 9%
Mass, dry, root [5]: 1.72 g/100 plantlings
Mass, dry, root, + % to control [5]: 24%
Mass, dry, sprout [5]: 1.17 g/100 plantlings
Mass, dry, sprout, + % to control [5]: 48%
Mass, wet, root [5]: 12.06 g/100 plantlings
Mass, wet, root, + % to control [5]: 36.5%
Mass, wet, sprout [5]: 7.29 g/100 plantlings
Mass, wet, sprout, + % to control [5]: 23.5%
Length, root [6]: 5.3 cm
Length, root, + % to control [6]: 10%
Length, sprout [6]: 3.4 cm
Length, sprout, + % to control [6]: 0%
Mass, dry, root [6]: 1.61 g/100 plantlings
Mass, dry, root, + % to control [6]: 16%
Mass, dry, sprout [6]: 0.92 g/100 plantlings
Mass, dry, sprout, + % to control [6]: 16%
Mass, wet, root [6]: 11.78 g/100 plantlings
Mass, wet, root, + % to control [6]: 33%
Mass, wet, sprout [6]: 6.91 g/100 plantlings
Mass, wet, sprout, + % to control [6]: 17%
Length, root [7]: 4.9 cm
Length, root, + % to control [7]: 2%
Length, sprout [7]: 2.9 cm
Length, sprout, + % to control [7]: −15%
Mass, dry, root [7]: 1.47 g/100 plantlings
Mass, dry, root, + % to control [7]: 6%
Mass, dry, sprout [7]: 0.79 g/100 plantlings
Mass, dry, sprout, + % to control [7]: 0%
Mass, wet, root [7]: 10.88 g/100 plantlings
Mass, wet, root, + % to control [7]: 23%
Mass, wet, sprout [7]: 6.28 g/100 plantlings
Mass, wet, sprout, + % to control [7]: 6%
effectiveness on germinating power (corn, 1·10^−6%, 1·10^−7%, 1·10^−11% and 1·10^−12% solutions): ineffective
Length, root, + % to control (corn, 1·10^−9% solution): 21%
Length, sprout, + % to control (corn, 1·10^−9% solution): 15%
Mass, dry, root, + % to control (corn, 1·10^−9% solution): 31%
Mass, dry, sprout, + % to control (corn, 1·10^−9% solution): 58%
Mass, wet, root, + % to control (corn, 1·10^−9% solution): 43%
Mass, wet, sprout, + % to control (corn, 1·10^−9% solution): 30%

O=P([O-])(CO)CO.[Na+] [Na-salt, Sodium BHMPA Salt]
optimum concentration for treating corn seeds before sowing (corn): 1·10^−10%
Length, root [8]: 4.5 cm
Length, root, + % to control [8]: −4%
Length, sprout [8]: 2.4 cm
Length, sprout, + % to control [8]: −14%
Mass, dry, root [8]: 0.99 g/100 plantlings
Mass, dry, root, + % to control [8]: −19%
Mass, dry, sprout [8]: 0.69 g/100 plantlings
Mass, dry, sprout, + % to control [8]: −4%
Mass, wet, root [8]: 5.95 g/100 plantlings
Mass, wet, root, + % to control [8]: −12%
Mass, wet, sprout [8]: 4.34 g/100 plantlings
Mass, wet, sprout, + % to control [8]: −5%
Length, root [9]: 4.9 cm
Length, root, + % to control [9]: 4%
Length, sprout [9]: 2.6 cm
Length, sprout, + % to control [9]: −7%
Mass, dry, root [9]: 1.03 g/100 plantlings
Mass, dry, root, + % to control [9]: −15.5%
Mass, dry, sprout [9]: 0.77 g/100 plantlings
Mass, dry, sprout, + % to control [9]: 7%
Mass, wet, root [9]: 6.72 g/100 plantlings
Mass, wet, root, + % to control [9]: −1%
Mass, wet, sprout [9]: 4.62 g/100 plantlings
Mass, wet, sprout, + % to control [9]: 1%
Length, root [10]: 5.0 cm
Length, root, + % to control [10]: 6%
Length, sprout [10]: 2.8 cm
Length, sprout, + % to control [10]: 0%
Mass, dry, root [10]: 1.18 g/100 plantlings
Mass, dry, root, + % to control [10]: −3%
Mass, dry, sprout [10]: 0.86 g/100 plantlings
Mass, dry, sprout, + % to control [10]: 19%
Mass, wet, root [10]: 6.93 g/100 plantlings
Mass, wet, root, + % to control [10]: 2%
Mass, wet, sprout [10]: 4.74 g/100 plantlings
Mass, wet, sprout, + % to control [10]: 4%
Length, root [11]: 5.2 cm
Length, root, + % to control [11]: 11%
Length, sprout [11]: 3.0 cm
Length, sprout, + % to control [11]: 7%
Mass, dry, root [11]: 1.25 g/100 plantlings
Mass, dry, root, + % to control [11]: 2%
Mass, dry, sprout [11]: 0.69 g/100 plantlings
Mass, dry, sprout, + % to control [11]: 26%
Mass, wet, root [11]: 7.08 g/100 plantlings
Mass, wet, root, + % to control [11]: 4%
Mass, wet, sprout [11]: 4.91 g/100 plantlings
Mass, wet, sprout, + % to control [11]: 7%
Length, root [12]: 5.5 cm
Length, root, + % to control [12]: 17%
Length, sprout [12]: 3.1 cm
Length, sprout, + % to control [12]: 11%
Mass, dry, root [12]: 1.30 g/100 plantlings
Mass, dry, root, + % to control [12]: 6.5%
Mass, dry, sprout [12]: 1.12 g/100 plantlings
Mass, wet, root [12]: 7.19 g/100 plantlings
Mass, wet, sprout [12]: 5.35 g/100 plantlings
Mass, wet, sprout, + % to control [12]: 17%
Length, root [13]: 5.3 cm
Length, root, + % to control [13]: 13%
Length, sprout [13]: 2.9 cm
Length, sprout, + % to control [13]: 3.5%
Mass, dry, root [13]: 1.26 g/100 plantlings
Mass, dry, root, + % to control [13]: 3%
Mass, dry, sprout [13]: 0.92 g/100 plantlings
Mass, dry, sprout, + % to control [13]: 28%
Mass, wet, root [13]: 6.88 g/100 plantlings
Mass, wet, root, + % to control [13]: 1%
Mass, wet, sprout [13]: 4.99 g/100 plantlings
Mass, wet, sprout, + % to control [13]: 9%
Length, root [14]: 4.6 cm
Length, root, + % to control [14]: −2%
Length, sprout [14]: 2.6 cm
Length, sprout, + % to control [14]: −7%
Mass, dry, root [14]: 0.95 g/100 plantlings
Mass, dry, root, + % to control [14]: −22%
Mass, dry, sprout [14]: 0.80 g/100 plantlings
Mass, dry, sprout, + % to control [14]: 11%
Mass, wet, root [14]: 6.12 g/100 plantlings
Mass, wet, root, + % to control [14]: −10%
Mass, wet, sprout [14]: 4.37 g/100 plantlings
Mass, wet, sprout, + % to control [14]: −4%
effectiveness on germinating power (corn, 1·10^−6% and 1·10^−12% solutions): ineffective
Length, root, + % to control (corn, 1·10^−10% solution): 17%
Length, sprout, + % to control (corn, 1·10^−10% solution): 11%
Mass, dry, root, + % to control (corn, 1·10^−10% solution): 6.5%
Mass, dry, sprout, + % to control (corn, 1·10^−10% solution): 55.5%
Mass, wet, root, + % to control (corn, 1·10^−10% solution): 6%
Mass, wet, sprout, + % to control (corn, 1·10^−10% solution): 17%
